The structures appear in SMILES notation.

In turn, `Cc1ccc(NC(=N)c2ccncc2)cc1` came in with a melting point of 120 to 123 °C.

Regarding `O=C1NCCN1Cc1ccc(Cl)c(Cl)c1`, the melting point fell in the range of 129 to 130 °C.

With `CC(=O)Nc1ncc(S(=O)(=O)NC(C)(C)CO)s1`, the melting point turned out to be 206 °C.

Molecule `CCC(=O)Nc1ccc(Cl)c(COc2cccn3c(Br)c(C)nc23)c1Cl` returned a melting point of 205 to 207 °C.

Regarding `COc1ccc(-c2nc3ccc(C(=O)O)cc3[nH]2)cc1C12CC3CC(CC(C3)C1)C2`, the melting point is 358 to 359 °C.

For `CC12CC(O)C3=C4CCC(=O)C=C4CCC3C1C(O)CC2=O` (configuration not stated), the melting point was 146 °C.

As for `Cc1c(-c2cccc(C(F)(F)F)c2)oc2c(-c3ccc(F)cc3)c(-c3ccc(S(C)(=O)=O)cc3)nn12`, the melting point lay in the range of 194 to 195 °C.

With `O=[N+]([O-])c1ccc(OCc2ccccn2)cc1`, the melting point was 116 to 117 °C.

For `CCCCCCCCOC(=O)NCC1CCC(CNC(=O)OCCCCCCCC)CC1` (configuration not stated), the melting point was 120 to 122 °C.

For the molecule `CS(=O)(=O)Nc1ccc(C(=O)O)c(Cl)c1`, the melting point is 256 to 258 °C.

`CCC1(CC)CN(C(C)(C)C)C(=O)C(C)(CC)N1OC(C)(C)C#N` (configuration not stated) had a melting point of 78 to 80 °C.

With `Cc1c(C)c2c(c(C)c1N)CC(C)(CN1CCN(C(=O)C(c3ccccc3)c3ccccc3)CC1)O2` (configuration not stated), the melting point is 113 to 115 °C.

The molecule `Fc1ccc2ncn3ncnc3c2c1` gave a melting point of 193 to 195 °C.

The molecule `C[C@@H]1N(c2ccc(C#N)c(Cl)c2)C(=O)C[C@@]1(O)C1CC1` returned a melting point of 93 to 100 °C.

As for `O=C(Nc1cccnc1)NC(CS)Cc1ccccc1` (single isomer, unassigned; (+)), the melting point amounted to 149 °C.

On to `O=C(NC(Cc1ccc(F)cc1)C(=O)O)c1cn2cc(-c3ccc(Cl)cc3)ccc2n1` (configuration not stated), for which the melting point was found to be 266 °C.

The molecule `O=S(=O)(Nc1onc2c1CCCC2)c1ccccc1` returned a melting point of 155 to 157 °C.

In turn, `CN1c2ccccc2N=C(N2CCN(CCO)CC2)c2cscc21` yielded a melting point of 192 to 193 °C.

The molecule `COC(=O)C(c1ccc(-c2ccccc2F)cc1)S(C)=O` (configuration not stated) came in with a melting point of 79 to 80 °C.

The molecule `CN(Cc1cc(C(F)(F)F)cc(C(F)(F)F)c1)C(=O)c1c(-c2ccc(F)cc2)c2nccnc2c(=O)n1C` displayed a melting point of 220 to 222 °C.

Molecule `O=C(O)c1cc(-c2ccc(OCc3ccccc3)cc2OCc2ccccc2)n[nH]1` yielded a melting point of 218 to 219 °C.

Regarding `C#CC[C@H](c1nc2cc(Cl)ccc2c(=O)n1Nc1ccccc1)N(CCCN)C(=O)c1cc2ccccc2s1`, the melting point is 103 to 106 °C.

Molecule `CCc1nc2c(cnn2CC)c(NC2CCOCC2)c1CNC(=O)c1cccc(C(=O)NCc2ccc(OC)c(-c3cccc(CN4CC5CC4CN5)c3)c2)c1` (configuration not stated) showed a melting point of 129 to 131 °C.

The molecule `CC(=O)Nc1ccccc1N(CC(=O)OC(C)(C)C)C(=O)CNC(=O)Nc1cccc(C)c1` gave a melting point of 185 °C.

`CC1CC=CC2C(=O)OC(=O)C12` (configuration not stated): the melting point stood at 55 °C.

For `O=[N+]([O-])c1ccc(Oc2ccc(-n3cncn3)cc2)cc1`, the melting point was 131 to 132 °C.

As for `C=CCOC(=O)[C@@H]1CC[C@@H]2CN1C(=O)N2OCc1ccccc1`, the melting point fell in the range of 60 to 62 °C.

Regarding `COC(=O)c1c(C(=O)OC)c2n(c1C)-c1ccccc1C2`, the melting point lay within 162 to 164 °C.

As for `COC(=O)c1cccc(OCc2cc(Br)cs2)c1C(=O)OC`, the melting point was 65 °C.

`COC(=O)C1c2ccc(OC)cc2SC1c1ccc(OC)cc1` (configuration not stated): the melting point fell in the range of 98.3 to 99.8 °C.

As to `CN(C)CCN(C)C(=O)c1ccc2cc(-c3csc(N(C)S(=O)(=O)c4ccccc4)n3)c(=O)[nH]c2c1`, the melting point lay in the range of 144 to 148 °C.

`COC(=O)C12COc3cc(F)ccc3N1N=C(C(=O)Nc1ccc(C(F)(F)F)cc1)C2` (configuration not stated) registered a melting point of 178 to 181 °C.

Molecule `CC1(C)COC(c2cc(F)c(F)c([Si](C)(C)C)c2F)=N1` gave a melting point of 71 to 72 °C.

Regarding `Cn1nc2c(N)nc3ccccc3c2c1CC1(F)CCN(S(C)(=O)=O)CC1`, the melting point is 283 to 285 °C.

For the molecule `CC(=O)Nc1ccc(O)c(C)c1C`, the melting point is 184 to 185 °C.

As to `CC(C)(C)OC(=O)N1CCC(C(=O)c2cccs2)CC1`, the melting point fell in the range of 154 to 156 °C.

Take `CC1(C)CC(=O)C2C3CCCOC3C2(C)C1` (configuration not stated): the melting point was in the range of 111 to 112 °C.

In turn, `CCC(=O)NCC1CN=C(c2ccccc2F)c2cc(Cl)ccc2N1` (configuration not stated) yielded a melting point of 131 to 133 °C.

In turn, `CCOC(=O)c1cc(Cl)nc(SCc2ccc3ccccc3c2)n1` gave a melting point of 95 to 96 °C.

Take `CCCCCCCCCCCCCCCCC(O)CCCOC1CCCCO1` (configuration not stated): the melting point was 39 to 43 °C.

For the molecule `CCc1c(Sc2cc(C)cc(C)c2)n(CC2=CCCC2CO)c(=O)[nH]c1=O` (configuration not stated), the melting point was in the range of 59 to 60 °C.

In turn, `CN1C(=O)CN=C(c2ccc(O)cc2)c2cc(Cl)ccc21` returned a melting point of 225 to 259 °C.

`CC(OCc1ccc(-c2ccc(Cl)cc2)cc1)(C(=O)O)c1ccccc1` (configuration not stated) gave a melting point of 125 to 126 °C.

`CS(=O)(=O)c1ccc(Oc2cc(OCc3ccccc3)c3[nH]c(-c4ncc(CO)s4)cc3c2)cc1`: the melting point fell in the range of 125 to 126 °C.

For the molecule `CC(=O)NCCc1cccc2ccc(O)cc12`, the melting point lay within 125 to 126 °C.

As for `CCc1nc2c(c(C)c(C)n3nnnc23)n1CCOCCNC(=O)CCCCl`, the melting point lay within 149 to 151 °C.

The molecule `CCCCCCCCCCCCCCCCCCOCC(COP(=O)([O-])OCC[N+](C)(C)C)Oc1ccon1` (racemic) registered a melting point of 115 to 125 °C.

In the case of `COc1ccccc1N1CCN(CCCNC(=O)NC23CC4CC(CC(C4)C2)C3)CC1`, the melting point lay within 181 to 182 °C.

As for `COc1nc(C#N)c(C#N)[nH]1`, the melting point is 137 to 138 °C.

`C(#Cc1ccsc1)c1cccnc1` returned a melting point of 62 °C.

As for `COc1cc(Nc2c(C#N)cnc3cc(C)sc23)c(Cl)cc1Cl`, the melting point was in the range of 213 to 214 °C.

With `Cc1ccc(Oc2ccccc2-n2cncn2)c(O)c1`, the melting point was 132 to 133 °C.

Regarding `CCOC(=O)C(=CNc1ccc(Br)cn1)[N+](=O)[O-]`, the melting point was 141 to 142 °C.

For the molecule `Cc1cccc(-c2nc3ccccn3c2-c2ccnc(-c3ccc(NS(=O)(=O)C(F)(F)F)cc3)c2)n1`, the melting point amounted to 135 °C.

In turn, `CCN(CC)CC/C=C/c1cc2ncc(C#N)c(Nc3ccc(Sc4nccn4C)c(Cl)c3)c2cc1OC` showed a melting point of 194 to 202 °C.

Molecule `O=c1[nH]c2ccccc2n1CCCN1CCC(n2c(=S)[nH]c3ccccc32)CC1` came in with a melting point of 248 °C.

`COC(=O)c1cc2ccc(N3CCOCC3)cc2c2c1C=CC(c1ccc(OC)cc1)(c1ccc(OC)cc1)O2` yielded a melting point of 154 to 155 °C.

The molecule `CNC(=O)[C@@H]1CCC[C@@H]1Nc1nc(Nc2cc3c(cc2OC)CCN(CC(=O)N(C)C)CC3)ncc1Cl` (relative stereo) displayed a melting point of 240 °C.

`COc1ccc2c(c1)C(N(CC(=O)O)C(=O)C(C)CSC(C)=O)CC2` (configuration not stated) showed a melting point of 106 to 110 °C.

Consider `CCN(C(=O)N(C)C)c1ccccc1-c1ccc2nnc(C)n2n1`, for which the melting point is 138 to 140 °C.

As to `CN1CC(CCCl)Oc2ncc(-c3ccccc3)cc2C1=S` (configuration not stated), the melting point lay within 156 to 158 °C.

In turn, `CCOC(=O)c1ncn2c(C(F)(F)F)cc(-c3ccc(C(F)(F)F)cc3)nc12` registered a melting point of 243 °C.
